Measurements: US20070248672A1, “Indole and Azaindole Derivatives with Antitumor Action” (priority 2004, published 2007)
Counter-ions that a name gives are not always drawn. Like-named read-outs stand apart in the source and are kept apart here.

Assays:
HT29 cells [1] = assay: Co-treatment with topotecan, HT29 cells (Combination Index according to Kern); type: cell-based, human; details: HT29 cells
Protocol: (§1) The cells (HT29 and HT29/Mit: 40,000 cells/ml, LoVo, LoVo/Dx and HCT116: 50,000 cells/ml) are seeded in 100 μl of the respective culture media in 96-well plates. 24 hours after seeding, an aliquot (10 μl) of drug at the various concentrations is added. In the samples in which the effect of the combination of two compounds is to be tested the inhibitor is added immediately before the cytotoxic. For each dose or combination of doses/drugs the effect of the treatment is determined in 4-8 replicates.
(§2) After 72 hours of treatment the antiproliferative effect is evaluated using the sulforhodamine B (SRB) assay: the cells are fixed by adding 25 μl of 50% TCA to each well and left for 1 hour at 4° C. After washing them with water and allowing them to dry, 100 μl of 0.4% SRB in 1% acetic acid are added and left for 30 minutes at room temperature. After 4 washes in 1% acetic acid, they are left to dry then the dye fixed by the proteins is dissolved under basic conditions with 100 μl 10 mM cold Tris and the solution is read using a spectrophotometer at 550 nm.
(§3) Percentage cell growth is calculated as the optical density of treated samples compared to the optical density of controls (untreated cells).
(§4) The Combination Index (C.I.) was determined according to Kern's method, 1988 (who continued from Drewinko B, 1976) (Kem D. H., Cancer Res. 48, 117-121, 1988; Drewinko B., Cancer Biochem. Biophys. 1, 187-195, 1976) by means of the following formula: […], where SFa and SFb are the fractions of cells surviving to treatment with compound a and b, respectively; SFab is the fraction surviving to the combination of compounds a and b. If the result is =1, the interaction between the two compounds is additive; if it is >1, the interaction between the two compounds is synergistic; if it is <1, the interaction between the two compounds is antagonistic.

HT29/Mit cells [2] = assay: Co-treatment with topotecan, HT29/Mit resistant cells (Combination Index according to Kern); type: cell-based, human; details: HT29/Mit cells
Protocol: as §1, §2, §3, §4

[3] = molecular target: Vacuolar ATPase in bovine chromaffin cells membranes (BCG) (Bos taurus, UniProt P23956+Q29466); assay: Vacuolar ATPase inhibition in bovine chromaffin cells membranes (BCG); type: biochemical; details: read-out: ATPase activity (IC50) BCG; bovine chromaffin cell membranes
Protocol: (§5) Inhibition of bafilomycin sensitive ATPase activity is assayed by measuring the release of inorganic phosphate during 30 minutes of incubation, at 37° C., of the human osteoclastoma microsomal fraction in 96-well plates. The reaction medium contains 1 mM ATP, 10 mM Hepes-Tris buffer pH 8, 50 mM KCl, 5 μM valinomycin, 5 μM nigericin, 1 mM CDTA-Tris, 100 μM ammonium molybdate, 0.2 M sucrose and the microsomal fraction (20 μg protein/ml). The reaction is initiated by adding MgSO4 and terminated, after 30 minutes, by adding 4 volumes of the reagent malachite green, prepared according to Chan K., Anal. Biochem. 157, 375-380, 1986.
1.2 Determination of Vacuolar ATpase Inhibition in the Bovine Chromaffin Cells Membranes (BCG)
About 20 adrenal glands (Cidon S., J. Biol. Chem. 258, 2892-2898, 1983) are removed from healthy bovines; the medulla is quickly separated from the cortex, which is discarded. The medulla is homogenised at 4° C. with a suitable medium at pH 7.5, then filtered. The remaining solid material is further homogenised, filtered and recombined with the preceding filtrate, resuspended and centrifuged at 1000 g for 15 minutes; the supernatant obtained is centrifuged at 10000 g for 20 minutes. The resultant pellet is resuspended and stratified through a sucrose gradient formed of a lower part of 15 ml 1.5 M sucrose and an upper part of 10 ml 1.2 M sucrose. After overnight centrifugation at 4° C. with a SW28 rotor at 20000 rpm, the chromaffiln cells sediment into a pellet. This latter is resuspended, centrifuged at 3000 g for 10 minutes, and the supernatant obtained is centrifuged at 200000 g for 60 minutes. The pellet is then resuspended in 4 ml of a suitable medium containing 0.2 μg/ml pepstatin A and 0.4 μg/ml leupeptin and stored under liquid nitrogen.
The method for ATPase inhibition assay is the same as that followed for the osteoclastoma.

HT29 cells [4] = assay: Antiproliferative activity, 72 h treatment, SRB assay, HT29; type: cell-based, human
Protocol: (§6) HT29 and HT29/Mit (line obtained by prolonged exposure to mitoxantrone, and characterised by overexpression of BCRP, which confers cross resistance to topotecan, irinotecan and to its metabolite SN38): maintained in McCoy 5A medium+10% FCS.
(§7) 2.2 Scheme of the Antiproliferative Activity Experiment (Treatment Time: 72 Hours)
as §1, §2, §3

HT29/Mit cells [5] = assay: Antiproliferative activity, 72 h treatment, SRB assay, HT29/Mit resistant line; type: cell-based, human
Protocol: as §6, §7, §1, §2, §3

HepG2 cells = assay: Antiproliferative activity, 48 h treatment, ATPlite luminescence assay, HepG2; type: cell-based, human; details: HepG2, 48 h treatment, read-out: Antiproliferative activity (IC50 ± S.D.) HepG2 48 h treatment
Protocol: HepG2: maintained in EMEM medium+10% FCS.
2.3 Scheme of the Antiproliferative Activity Experiment (Treatment Time: 48 Hours)
The cells (concentration: 30,000 cells/ml) are seeded in 90 μl of the respective culture media in 96-well plates. 24 hours after seeding, an aliquot (10 μl) of the drug at the various concentrations is added (for each concentration there are 3 replicates). After 48 hours of treatment the antiproliferative effect is evaluated with a luminescence assay (Perkin Elmer Life Sciences ATPlite):
50 μl of a lysis solution are added to each well followed by an equal volume of a solution containing luciferase and D-luciferin. The ATP present in all the metabolically active cells brings about the transformation reaction of D-luciferin, catalysed by luciferase, to produce a luminescent signal as described in the following scheme: ATP+D-luciferin+O2→Oxyluciferin+AMP+PP1+CO2+Light
The luminescence produced (expressed in counts per second, CPS) is measured by means of a microplate scintillation analyzer (Perkin Elmer Life Sciences Top Count).
Percentage inhibition of luminescence in the treated cells compared to the control is calculated; concentration-response curves are then analysed using Grafit v.5.0.

[6] = tested on: HT29/Mit human colon carcinoma xenografts; assay: HT29/Mit human colon carcinoma xenograft, antitumor activity; type: in vivo, athymic Swiss nude mice
Text: 1.1 Model of HT29/Mit human colon carcinoma xenografts-Antitumor activity Female athymic Swiss nude mice (8-10 weeks old) (Charles River, Calco, Italy) were used for the experiments. The animals were maintained at constant temperature and humidity, and were allowed to eat and drink freely. The experimental protocol was approved by the Ethics Committee for Animal Experimentation of the Istituto Nazionale Tumori of Milan. The antitumour effectiveness of the compounds of the invention under discussion was tested on athymic mouse models implanted with HT29 and/or HT29/Mit tumour cells: this latter variety is highly resistant to topotecan treatment. The tumour cells were implanted in vivo via subcutaneous injection of 10^7 cells taken from in vitro cultures. Randomized groups of five mice with bilateral subcutaneous tumours were used for the experiment. Topotecan or other known antitumour agents (dissolved in distilled water or an appropriate solvent) and the compounds of the invention (dissolved in Cremophor EL: ethanol: saline solution in the proportions 5:5:90, or in an appropriate solvent) were administered orally from the third day, alone or in combination, in agreement with a treatment scheme selected in an appropriate manner depending on the type of compound to be studied. The weight (or volume) of the tumour in treated mice compared to controls is represented graphically on the y-axis against time (x-axis).

[7] = molecular target: Vacuolar ATPase in human osteoclastoma (hOc) (Homo sapiens, UniProt P27449+Q13488); assay: Vacuolar ATPase inhibition in human osteoclastoma (hOc) microsomal fraction; type: biochemical; details: 30 min, 37° C.
Protocol: 1.1 Determination of Vacuolar ATpase Inhibition in Human Osteoclastoma (hOc)
Osteoclast-like giant cells isolated from human osteoclastoma are homogenized using a glass-teflon homogeniser (1000 rpm) and the material is centrifuged for 20 minutes at 6000 g. The resultant pellet is resuspended and centrifuged at 100000 g for 60 minutes to sediment the microsomal fraction. The resultant pellet is resuspended in medium at pH 7.4 and stored under liquid nitrogen.
as §5

[8] = Homo sapiens, HT-29, HT29, after 72 hours of treatment, range stated for the group, read-out: IC50 values in the sensitive line
[9] = Homo sapiens, HT-29, 72 h treatment, read-out: Antiproliferative activity (IC50 ± S.D.) HT-29 72 h treatment
[10] = Homo sapiens, HT-29, HT29/Mit, after 72 hours of treatment, range stated for the group, read-out: IC50 values in the resistant line
[11] = Homo sapiens, HT-29/Mit resistant line, 72 h treatment, read-out: Antiproliferative activity (IC50 ± S.D.) HT-29/Mit
[12] = HT-29, 72 h treatment, read-out: Antiproliferative activity (IC50 ± S.D.) HT-29 72 h treatment

Sequence of Vacuolar ATPase in bovine chromaffin cells membranes (BCG) (P23956 whole entry, looked up): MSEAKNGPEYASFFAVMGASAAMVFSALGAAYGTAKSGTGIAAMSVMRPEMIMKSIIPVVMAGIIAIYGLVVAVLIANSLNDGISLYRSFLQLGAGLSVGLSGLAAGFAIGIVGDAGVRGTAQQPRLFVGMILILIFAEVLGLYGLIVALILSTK
Sequence of Vacuolar ATPase in bovine chromaffin cells membranes (BCG) (Q29466 whole entry, looked up): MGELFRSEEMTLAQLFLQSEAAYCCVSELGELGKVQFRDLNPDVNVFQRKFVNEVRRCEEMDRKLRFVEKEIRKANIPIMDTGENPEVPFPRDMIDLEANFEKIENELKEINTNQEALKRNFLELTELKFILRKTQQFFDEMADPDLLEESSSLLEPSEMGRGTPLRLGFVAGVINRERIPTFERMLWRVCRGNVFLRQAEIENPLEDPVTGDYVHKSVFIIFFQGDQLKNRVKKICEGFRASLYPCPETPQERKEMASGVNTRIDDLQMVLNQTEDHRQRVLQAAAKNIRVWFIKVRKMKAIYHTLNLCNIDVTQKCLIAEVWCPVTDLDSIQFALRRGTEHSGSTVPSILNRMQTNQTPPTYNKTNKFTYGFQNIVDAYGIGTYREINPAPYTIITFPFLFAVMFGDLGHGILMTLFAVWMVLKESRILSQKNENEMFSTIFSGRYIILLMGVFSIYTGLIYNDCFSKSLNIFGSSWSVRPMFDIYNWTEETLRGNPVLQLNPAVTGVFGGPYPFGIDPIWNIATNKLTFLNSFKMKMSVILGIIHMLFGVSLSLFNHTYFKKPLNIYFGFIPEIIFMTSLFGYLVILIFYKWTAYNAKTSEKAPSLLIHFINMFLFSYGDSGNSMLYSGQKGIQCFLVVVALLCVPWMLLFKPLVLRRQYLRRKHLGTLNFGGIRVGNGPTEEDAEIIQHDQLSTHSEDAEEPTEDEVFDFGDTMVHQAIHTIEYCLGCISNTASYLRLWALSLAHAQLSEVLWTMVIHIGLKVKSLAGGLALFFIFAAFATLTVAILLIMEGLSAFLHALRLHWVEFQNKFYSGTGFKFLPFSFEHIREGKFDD
Sequence of Vacuolar ATPase in human osteoclastoma (hOc) (P27449 whole entry, looked up): as the sequence (P23956 whole entry, looked up) above, with A4S, N6S, M51Q, G83D, R88K counted along it
Sequence of Vacuolar ATPase in human osteoclastoma (hOc) (Q13488 whole entry, looked up): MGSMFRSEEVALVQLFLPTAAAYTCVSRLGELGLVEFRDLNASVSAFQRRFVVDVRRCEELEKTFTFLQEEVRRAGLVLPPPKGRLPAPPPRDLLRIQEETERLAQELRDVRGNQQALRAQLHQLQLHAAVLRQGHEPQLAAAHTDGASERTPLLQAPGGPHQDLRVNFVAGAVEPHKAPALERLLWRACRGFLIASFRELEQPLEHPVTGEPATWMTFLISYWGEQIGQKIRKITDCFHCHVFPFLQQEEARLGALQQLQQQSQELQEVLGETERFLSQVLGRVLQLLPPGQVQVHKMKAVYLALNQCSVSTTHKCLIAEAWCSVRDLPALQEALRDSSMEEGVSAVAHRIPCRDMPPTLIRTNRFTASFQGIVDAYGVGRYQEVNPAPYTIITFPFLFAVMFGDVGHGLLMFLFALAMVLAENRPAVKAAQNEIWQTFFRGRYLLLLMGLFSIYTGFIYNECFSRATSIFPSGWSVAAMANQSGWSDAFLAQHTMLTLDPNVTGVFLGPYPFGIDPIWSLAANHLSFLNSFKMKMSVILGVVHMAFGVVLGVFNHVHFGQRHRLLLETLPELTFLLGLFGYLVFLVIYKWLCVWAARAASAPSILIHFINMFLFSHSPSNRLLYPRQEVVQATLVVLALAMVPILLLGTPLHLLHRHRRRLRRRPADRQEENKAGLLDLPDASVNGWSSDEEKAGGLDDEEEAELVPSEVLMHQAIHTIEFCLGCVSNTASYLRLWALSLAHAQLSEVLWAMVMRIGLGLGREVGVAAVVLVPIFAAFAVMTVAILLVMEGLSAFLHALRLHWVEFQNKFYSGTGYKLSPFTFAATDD

| SMILES | IC50 [3] [µM] | IC50 (HT29 cells [4]; [8]) [µM] | IC50 (HT29 cells [4]; [9]) [µM] | IC50 (HT29/Mit cells [5]; [10]) [µM] | IC50 (HT29/Mit cells [5]; [11]) [µM] | also measured |
| --- | --- | --- | --- | --- | --- | --- |
| COc1ccc(-c2c(-c3nnco3)[nH]c3cc(OC)c(OC)cc23)cc1 [Example 26, 5,6-Dimethoxy-3-(4-methoxyphenyl)-2-[1,3,4]oxadiazol-2-yl-1H-indole] | 0.71 | 5 to 42 | 40.3 | 0.1 to 3 | 2.7 | effect in combination with topotecan (HT29 cells [1]): synergistic effects; effect in combination with topotecan (HT29/Mit cells [2]): synergistic effects |
| COc1ccc(-c2c(C#N)[nH]c3cc(OC)c(OC)cc23)cc1 [Example 17, 5,6-dimethoxy-3-(4-methoxyphenyl)-1H-indole-2-carbonitrile] | 0.273 |  | 4.9 ± 0.5 |  | 2.5 |  |
| N.N.[Cl][Pt][Cl] [Cisplatin, reference compound] |  |  |  |  |  | IC50 (HepG2 cells): > 25 µM; IC50 (HT29 cells [4]; [12]): 6.8 µM |
| COc1ccc(-c2c3n(c4cc(OC)c(OC)cc24)CCNC3)cc1 [Example 28, 7,8-Dimethoxy-10-(4-methoxyphenyl)-1,2,3,4-tetrahydro-pyrazino[1,2-a]indole hydrochloride] | 1.27 | 5 to 42 | 37.3 | 0.1 to 3 | 0.53 |  |
| COC(=O)c1[nH]c2cc(OC)c(OC)cc2c1-c1ccc(OC)c(OC)c1 [Example 2, -3-(3,4-Dimethoxyphenyl)-5,6-dimethoxy-1H-indole-2-carboxylic acid methyl ester] |  |  | 35.2 ± 5.2 |  | 15.2 ± 0.3 | IC50 (HepG2 cells; Homo sapiens): 25.5 ± 4.5 µM |
| COC(=O)c1[nH]c2cc(OC)c(OC)cc2c1-c1ccccc1 [Example 3, 5,6-Dimethoxy-3-phenyl-1H-indole-2-carboxylic acid methyl ester] | 0.628 | 5 to 42 | 37.3 | 0.1 to 3 | 0.15 |  |
| CC[C@@]1(O)C(=O)OCc2c1cc1n(c2=O)Cc2cc3c(CN(C)C)c(O)ccc3nc2-1 [Topotecan, reference compound] |  |  | 0.07 ± 0.01 |  | 50.6 | tumor growth inhibition ([6]; 1 mg/kg p.o.): 62%; tumor growth inhibition ([6]; 2 mg/kg p.o.): 80% |
| COc1ccc(-c2c(C#N)n(CCN(C)C)c3cc(OC)c(OC)cc23)cc1 [Example 18, 1-(2-Dimethylaminoethyl)-5,6-dimethoxy-3-(4-methoxyphenyl)-1H-indole-2-carbonitrile hydrochloride] | 0.567 | 5 to 42 | 16.7 | 0.1 to 3 | 0.15 |  |
| COc1ccc(-c2c(-c3ncn[nH]3)[nH]c3cc(OC)c(OC)cc23)cc1 [Example 23, 5,6-Dimethoxy-3-(4-methoxyphenyl)-2-(2H-[1,2,4]triazol-3-yl)-1H-indole] | 0.47 | 5 to 42 | 41.9 | 0.1 to 3 | 2.3 | effect in combination with topotecan (HT29 cells [1]): synergistic effects; effect in combination with topotecan (HT29/Mit cells [2]): synergistic effects |
| COc1ccc(-c2c3n(c4cc(OC)c(OC)cc24)CCNC3=O)cc1 [Example 27, 7,8-Dimethoxy-10-(4-methoxyphenyl)-3,4-dihydro-2H-pyrazino[1,2-a]indol-1-one] | 0.248 |  | 5.2 |  | 2.9 |  |
| CO/C1=C\C(C)=C\[C@@H](C)[C@@H](O)[C@@H](C)C/C(C)=C/C=C/[C@H](OC)[C@@H]([C@@H](C)[C@@H](O)[C@H](C)[C@@]2(O)C[C@@H](O)[C@H](C)[C@@H](C(C)C)O2)OC1=O [Bafilomycin A1, reference compound] |  |  |  |  |  | IC50 (HepG2 cells): < 0.006 µM; IC50 (HT29 cells [4]; [12]): 0.003 ± 0.002 µM; IC50 [7]: 0.0001 µM; IC50 (HT29/Mit cells [5]; HT-29/Mit resistant line, 72 h treatment, read-out: Antiproliferative activity (IC50 ± S.D.) HT-29/Mit): 0.005 µM |
| CCOC(=O)c1[nH]c2cc(OC)c(OC)cc2c1-c1ccccc1 [Example 4, 5,6-Dimethoxy-3-phenyl-1H-indole-2-carboxylic acid ethyl ester] | 0.35 | 5 to 42 | 37.3 | 0.1 to 3 | < 0.1 |  |
| COC(=O)c1c(-c2ccc(OC)cc2)c2cc(OC)c(OC)cc2n1CCO [Example 12, 1-(2-Hydroxyethyl)-5,6-dimethoxy-3-(4-methoxyphenyl)-1H-indole-2-carboxylic acid methyl ester] | 0.247 | 5 to 42 | 4.6 | 0.1 to 3 | 0.66 ± 0.3 | effect in combination with topotecan (HT29 cells [1]): synergistic effects; effect in combination with topotecan (HT29/Mit cells [2]): synergistic effects |
